US9034921B2, “Diphenylmethane derivatives as SGLT2 inhibitors” (GREEN CROSS CORPORATION, priority 2011, dated 2015)

molecular target: human SGLT2 (Homo sapiens (Human), UniProt P31639); experiment: Inhibitory effects on human SGLT2 activities (14C-AMG uptake, sodium-dependent glucose transport assay); type: cell-based; conditions: CHO cells stably expressing hSGLT2, 37° C., 2 h, single determinations
Outline: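 CHO cells stably expressing hSGLT2 were preincubated 10 min at 37 °C in choline (Na+-free) buffer, then exposed 2 h at 37 °C to compound in Na+ uptake buffer with 8 μM 14C-AMG and 1 mM unlabeled AMG. Radioactivity was scintillation counted; IC50 came from nonlinear regression.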

Chain of human SGLT2 (P31639 whole entry): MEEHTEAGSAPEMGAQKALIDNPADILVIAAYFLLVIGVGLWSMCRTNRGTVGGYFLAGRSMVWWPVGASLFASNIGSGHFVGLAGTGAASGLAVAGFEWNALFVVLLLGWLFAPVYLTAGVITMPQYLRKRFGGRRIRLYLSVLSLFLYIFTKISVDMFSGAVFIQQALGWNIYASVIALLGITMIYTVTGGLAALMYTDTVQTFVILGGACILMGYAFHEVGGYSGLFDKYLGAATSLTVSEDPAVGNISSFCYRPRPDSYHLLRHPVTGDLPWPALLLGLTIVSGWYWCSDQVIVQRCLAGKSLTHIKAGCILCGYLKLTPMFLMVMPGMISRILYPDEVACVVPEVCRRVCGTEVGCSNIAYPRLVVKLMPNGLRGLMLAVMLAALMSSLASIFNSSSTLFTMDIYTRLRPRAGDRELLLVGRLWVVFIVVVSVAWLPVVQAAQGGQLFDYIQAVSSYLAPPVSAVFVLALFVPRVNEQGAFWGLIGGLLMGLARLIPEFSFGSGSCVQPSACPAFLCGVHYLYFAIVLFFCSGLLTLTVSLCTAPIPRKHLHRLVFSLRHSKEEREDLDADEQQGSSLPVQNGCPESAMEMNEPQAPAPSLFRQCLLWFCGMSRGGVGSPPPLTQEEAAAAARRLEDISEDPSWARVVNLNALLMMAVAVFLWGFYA

Going from CCOc1ccc(Cc2cc([C@@H]3O[C@H](CO)[C@@H](O)[C@H](O)[C@H]3O)c3c(c2Cl)CC(C)O3)cc1 (stereo partly drawn) [Example E011, (2S,3R,4R,5S,6R)-2-(4-Chloro-5-(4-ethoxybenzyl)-2-methyl-2,3-dihydrobenzofuran-7-yl)-6-(hydroxymethyl)tetrahydro-2H-pyran-3,4,5-triol] to CCOc1ccc(Cc2cc([C@@H]3O[C@H](S(C)(=O)=O)[C@@H](O)[C@H](O)[C@H]3O)c3c(c2Cl)CC(C)O3)cc1 (stereo partly drawn) [Example E146, (2S,3R,4R,5S,6R)-2-(4-Chloro-5-(4-ethoxybenzyl)-2-methyl-2,3-dihydrobenzofuran-7-yl)-6-(methylsulfonyl)tetrahydro-2H-pyran-3,4,5-triol], the IC50 rises from 1.28 nM to 3.45 nM (2.7-fold).

Cc1c(Cc2ccc(C3CC3)cc2)cc([C@@H]2O[C@H](CO)[C@@H](O)[C@H](O)[C@H]2O)c2c1OCC2 [Example E178, (2S,3R,4R,5S,6R)-2-(6-(4-Cyclopropylbenzyl)-7-methyl-2,3-dihydrobenzofuran-4-yl)-6-(hydroxymethyl)tetrahydro-2H-pyran-3,4,5-triol] and OC[C@H]1O[C@@H](c2cc(Cc3ccc(C4CC4)cc3)c(Cl)c3c2OCC3)[C@H](O)[C@@H](O)[C@@H]1O [Example E120, (2S,3R,4R,5S,6R)-2-(4-Chloro-5-(4-cyclopropylbenzyl)-2,3-dihydrobenzofuran-7-yl)-6-(hydroxymethyl)tetrahydro-2H-pyran-3,4,5-triol] are within 1.5-fold of each other in IC50: 1.16 nM for the first, 1.09 nM for the second.

Going from O=S1(=O)CCOc2ccc(Cc3cc([C@@H]4O[C@H](CO)[C@@H](O)[C@H](O)[C@H]4O)ccc3Cl)cc21 [Example E073, (2S,3R,4R,5S,6R)-2-(4-Chloro-3-((1,1-dioxo-2,3-dihydrobenzo[b][1,4]oxathiin-6-yl)methyl)phenyl)-6-(hydroxymethyl)-tetrahydro-2H-pyran-3,4,5-triol] to Cn1ccc2cc(Cc3cc([C@@H]4O[C@H](CO)[C@@H](O)[C@H](O)[C@H]4O)ccc3Cl)ccc21 [Example E034, (2S,3R,4R,5S,6R)-2-(4-Chloro-3-((1-methyl-1H-indol-5-yl)methyl)phenyl)-6-(hydroxymethyl)tetrahydro-2H-pyran-3,4,5-triol], the IC50 falls from 78.5 nM to 2.98 nM (26-fold).

OC[C@H]1O[C@@H](c2cc(Cc3ccc(C4CC4)cc3)c(Cl)c3c2OCCO3)[C@H](O)[C@@H](O)[C@@H]1O [Example E163, (2S,3R,4R,5S,6R)-2-(8-Chloro-7-(4-cyclopropylbenzyl)-2,3-dihydrobenzo[b][1,4]dioxin-5-yl)-6-(hydroxymethyl)tetrahydro-2H-pyran-3,4,5-triol] and OC[C@H]1O[C@@H](c2cc(Cc3ccc(C4CC4)cc3)c(Cl)c3c2OCCC3)[C@H](O)[C@@H](O)[C@@H]1O [Example E121, (2S,3R,4R,5S,6R)-2-(5-Chloro-6-(4-cyclopropylbenzyl)chroman-8-yl)-6-(hydroxymethyl)tetrahydro-2H-pyran-3,4,5-triol] are within 1.5-fold of each other in IC50: 0.651 nM for the first, 0.851 nM for the second.

Going from COc1ccc(Cc2cc([C@@H]3O[C@H](CO)[C@@H](O)[C@H](O)[C@H]3O)c3c(c2Cl)C(C)(C)CO3)cc1 [Example E218, (2S,3R,4R,5S,6R)-2-(4-Chloro-5-(4-methoxybenzyl)-3,3-dimethyl-2,3-dihydrobenzofuran-7-yl)-6-(hydroxymethyl)tetrahydro-2H-pyran-3,4,5-triol] to COc1ccc(Cc2cc([C@@H]3O[C@H](CO)[C@@H](O)[C@H](O)[C@H]3O)c3occ(OC)c3c2Cl)cc1 [Example E202, (2S,3R,4R,5S,6R)-2-(4-Chloro-3-methoxy-5-(4-methoxybenzyl)benzofuran-7-yl)-6-(hydroxymethyl)tetrahydro-2H-pyran-3,4,5-triol], the IC50 rises from 4.66 nM to 42.3 nM (9.1-fold). The first is the more potent here.

Compared with CCOc1ccc(Cc2cc([C@@H]3O[C@H](CO)[C@@H](O)[C@H](O)[C@H]3O)c3c(c2Cl)CCC3)cc1 [Example E008, (2S,3R,4R,5S,6R)-2-(7-Chloro-6-(4-ethoxybenzyl)-2,3-dihydro-1H-inden-4-yl)-6-(hydroxymethyl)tetrahydro-2H-pyran-3,4,5-triol], OC[C@H]1O[C@@H](c2cc(Cc3ccc(OCCOC4CC4)cc3)c(Cl)c3c2CCO3)[C@H](O)[C@@H](O)[C@@H]1O [Example E198, (2S,3R,4R,5S,6R)-2-(7-Chloro-6-(4-(2-cyclopropoxyethoxy)benzyl)-2,3-dihydrobenzofuran-4-yl)-6-(hydroxymethyl)tetrahydro-2H-pyran-3,4,5-triol] is 3.7-fold higher in IC50: 0.551 nM for the first, 2.02 nM for the second.

COc1cc([C@@H]2O[C@H](SC)[C@@H](O)[C@H](O)[C@H]2O)cc(Cc2ccc3c(c2)OCCO3)c1Cl [Example E113, (2S,3R,4R,5S,6R)-2-(4-Chloro-3-((2,3-dihydrobenzo[b][1,4]dioxin-6-yl)methyl)-5-methoxyphenyl)-6-(methylthio)tetrahydro-2H-pyran-3,4,5-triol] and CC(C)c1ccc(Cc2cc([C@@H]3O[C@H](CO)[C@@H](O)[C@H](O)[C@H]3O)c3c(c2Cl)OCC3)cc1 [Example E181, (2S,3R,4R,5S,6R)-2-(7-Chloro-6-(4-isopropylbenzyl)-2,3-dihydrobenzofuran-4-yl)-6-(hydroxymethyl)tetrahydro-2H-pyran-3,4,5-triol] are within 1.5-fold of each other in IC50: 0.551 nM for the first, 0.794 nM for the second.

Going from OC[C@H]1O[C@@H](c2cc(Cc3ccccc3)c(Cl)c3c2CCO3)[C@H](O)[C@@H](O)[C@@H]1O [Example E166, (2S,3R,4R,5S,6R)-2-(6-Benzyl-7-chloro-2,3-dihydrobenzofuran-4-yl)-6-(hydroxymethyl)tetrahydro-2H-pyran-3,4,5-triol] to C=Cc1ccc(Cc2cc([C@@H]3O[C@H](CO)[C@@H](O)[C@H](O)[C@H]3O)c3c(c2Cl)OC(C)C3)cc1 (stereo partly drawn) [Example E137, (2S,3R,4R,5S,6R)-2-(7-Chloro-2-methyl-6-(4-vinylbenzyl)-2,3-dihydrobenzofuran-4-yl)-6-(hydroxymethyl)tetrahydro-2H-pyran-3,4,5-triol], the IC50 falls from 4.22 nM to 1 nM (4.2-fold).

For C=CCOc1cc(Cl)c(Cc2ccc(OC)cc2)cc1[C@@H]1O[C@H](OC)[C@@H](O)[C@H](O)[C@H]1O [Example E115, (2S,3R,4R,5S,6S)-2-(2-(Allyloxy)-4-chloro-5-(4-methoxybenzyl)phenyl)-6-methoxytetrahydro-2H-pyran-3,4,5-triol], the IC50 was 7.06 nM.
